Patent publication US9511120B2, “Use of the angiotensin-(1-9) peptide or derivatives thereof, use of vectors overexpressing the ACE2 enzyme that produces angiotensin-(1-9) for preparing medicaments useful for preventing, reverting, inhibiting and/or reducing hypertension and/or inducing vasodilation” (PONTIFICA UNIVERSIDAD CATÓLICA DE CHILE, priority 2012, dated 2016)

Tests used:
rat mesenteric arteries = assay: Contractility studies in perfused, pressurized mesenteric arteries; details: co-incubated with angiotensin-(1-9)
Procedure: The change in diameter of rat resistance (mesenteric) arteries was determined, they were then perfused and pressurized under physiological conditions, in response to different substances, according to a methodology previously described (Gonzalez et al. Hypertension 45:853-9, 2005). Briefly, male rats (Sprague Dawley, 150-200 g) were euthanized for dissection of mesenteric vascular territory, avoiding direct manipulation of arterial or venous tissue. Mesenteric small arteries (200-300 micrometers) were isolated, surgically eliminating adventitial tissue under a zoom stereo microscope (Olympus SZ61). The arteries were perfused intraluminally into a thermoregulated bath at controlled pressure and flow, with perfusion solution (modified Krebs, KRB) of the following composition, in mmol/L: NaCl, 130; CaCl2, 2.5; NaHCO3, 25; MgSO4, 1.2; NaH2PO4, 1.2; KCl, 4.7; glucose, 5.5, pH 7.4. Before use, KRB was gassed with a mixture of 95% O2 and 5% CO2. For perfusion, the artery was cannulated with a glass micropipette (outer diameter 164μ), secured with 5-0 silk suture. The arteries were perfused with 10-20 μL/min KRB, so as to achieve transmural pressure of 60 mmHg. After a rest period of 20 minutes, each artery was incubated in the presence of a vasoconstrictor (100 μM phenylephrine) for two minutes and an endothelial NO production agonist (1 μM acetylcholine). […]

[1] = test system: hypertensive rats by administration of angiotensin II; assay: Hypertension induced by angiotensin II infusion: body mass, cardiac mass, systolic blood pressure; format: in vivo, rat
Procedure: (§1) Rats were subjected to the model of angiotensin II infusion (Grobe et al.: Am. J. Physiol. 292: H736-42, 2007). The animals were separated randomly into the following experimental groups: controls (Sham or pseudo-operated), infused with angiotensin II (300 ng/kg min), infused with angiotensin II and angiotensin-(1-9) (300 ng/kg min and 602 ng/kg min, respectively), and then infused with angiotensin II, angiotensin-(1-9) and the angiotensin-(1-7) receptor antagonist, A779 (300 ng/kg min, 602 ng/kg min, and 100 ng/kg min, respectively). In all cases the pumps operated at a flow of 0.5 μL/h and were implanted in the right jugular vein through a catheter fitted in an intrascapular subcutaneous pocket under anesthesia with ketamine HCl/xylazine (35 and 7 mg/kg i.p., respectively), for a period of 14 days.
Systolic blood pressure (SBP) was measured by the tail plethysmographic method in the animals. To such end, rats were lightly anesthetized with ethyl ether. The measurement was performed once a week by researchers blind to the treatment (Ocaranza et al. J. Hypertens. 20:413-20, 2002).
The degree of cardiac hypertrophy (CH) was measured by the ratio of the cardiac mass (CM), the body mass (BM) and relative cardiac mass (RCM; [CM/BM]*100) (Ocaranza et al., J. Hypertens. 28:1054-1064, 2010).
Four experimental groups of rats were established as described in Example 1. Group 1 corresponds to rats which were infused with saline (Sham). Group 2 corresponds to rats which were infused with only angiotensin II. Group 3 correspond to rats which were co-infused with angiotensin II and angiotensin-(1-9). And Group 4 corresponds to rats which were co-infused with angiotensin II, angiotensin-(1-9) and A779.

[2] = test system: thoracic aortas of hypertensive rats by angiotensin II infusion; assay: Angiotensin II infusion model: aortic hypertrophy by morphometry; format: in vivo, rat; details: thoracic aorta, 14 days infusion
Procedure: as §1
Aortic hypertrophy was determined by morphometry. Sections of the descending aorta of 5 μm thick, which were previously fixed in Bouin (1.3% picric acid, 9.5% formaldehyde and 4.8% acetic acid) for 24 hours, embedded in paraffin and stained with hematoxylin-eosin, were used, to be examined later in a light microscope as described by Igase et al. (Am. J. Physiol. 289:H1013-9, 2005). Briefly, images of the aortas were captured by a video camera (Nikon) fixed to a microscope (Nikon), and projected on a monitor; using the software Nis-Element. Lumen areas (LA) and total areas (TA) were calculated and recorded. The tunica media area (TMA) was obtained from the difference between the TA and LA of the aorta. The tunica media thickness (TMT) was defined as the region delimited by the external elastic lamina (EEL) and internal elastic lamina (IEL).

collagen I = assay: Angiotensin II infusion model: collagen I protein levels in the aortic wall by Western blot; format: in vivo, rat; details: aortic wall
Procedure: as §1
For the determination of collagen I and TGFβ-1, 30 μg and 50 μg of total proteins were used, respectively, diluted in SDS reducing buffer (50 mM tris-HCl, pH 7.4, NP-40 10%, NaCl 1M, Na deoxycholate 5%, EDTA 10 mg/mL, SDS 10%, aprotinin 1 mg/mL, leupeptin 0.1 mg/mL, PMSF 10 mM), they were then separated by SDS-PAGE gel electrophoresis 7%, and transferred to nitrocellulose membranes of […] to 300 mA for 1 h. The transfer of proteins was monitored by Ponceau red staining. […]

MCP-1 mRNA = assay: Angiotensin II infusion model: MCP-1 mRNA levels in the aortic wall; format: in vivo, rat
Procedure: as §1
(§2) The procedure described by Ocaranza et al. (Hypertension 48:572-8, 2006) was followed. Briefly, total RNA was isolated from the aorta using the trizol method and quantified by spectroscopy at 260 nm/280 nm. The cDNA was obtained by reverse transcription from 1.5 μg of total RNA treated with DNAse. […] The band intensity was quantified by densitometry and normalized to the 18S ribosomal RNA band.

TGF-β mRNA = assay: Angiotensin II infusion model: TGF-β mRNA levels in the aortic wall; format: in vivo, rat; details: normalized to 18S rRNA
Procedure: as §1, §2

[3] = test system: cardiomyocyte hypertrophy induced by Ang II in vivo; assay: Angiotensin II infusion model: cardiomyocyte hypertrophy (area and perimeter); parameters: species or system rat; details: two weeks
Procedure: as §1
The middle portion of the left ventricle (LV) was dehydrated at room temperature for 24 h in Bouin and then embedded in paraffin. Sections of 10-15 μm thick were taken and stained with hematoxylin-eosin, to be examined later in a light microscope in order to observe their general morphological characteristics. Cardiomyocyte size was determined according to Nakamura et al. (Circulation, 98:794-9, 1998). Briefly, images of the cells were captured using a Nikon DS Fi1 camera and projected on a monitor using a software program. The cardiomyocyte area and perimeter were measured and recorded, using the Nis-Element program (Ocaranza et al. J. Hypertens., 28:1054-64, 2010). All measurements were performed by a blinded observer, and at least 80 images of cells per animal, which were randomly selected, were analyzed.

angiotensin-(1-9) = details: administration of the drug; cited from earlier work

COC(=O)[C@@H](N)CCCNC(=N)N[N+](=O)[O-] [L-NAME, reference compound]
effect of nitric oxide synthase inhibitor on the vasodilator effect of angiotensin-(1-9) (rat mesenteric arteries): decreased the vasodilator effect

Asp-Arg-Val-Tyr-Ile-His-Pro-Phe [angiotensin II, infused to induce hypertension in the model, reference compound]
SBP 1st week ([1]; 1st week of infusion): 130 ± 4 mmHg
SBP 2nd week ([1]; 2nd week of infusion): 154 ± 10 mmHg
Initial SBP ([1]; baseline, tail plethysmography): 121 ± 9 mmHg
CM ([1]; rats, infusion for 14 days): 899 ± 28 mg
RCM (MV/MC) ([1]; rats, infusion for 14 days): 348 ± 18
ratio of tunica media area (TMA) to LA [2]: increase
thickness of the tunica media (TMT) [2]: increased significantly
vascular lumen area (LA) [2]: no change
increase of collagen I as compared to the Sham control group (collagen I): 4.5 times
MCP-1 mRNA levels (MCP-1 mRNA): no differences
increase of TGF-β mRNA in relation to Sham control (TGF-β mRNA): 12.8 times
cardiomyocyte cell area ([3]; left ventricle): 282±2 μm^2
cardiomyocyte perimeter ([3]; left ventricle): 66.2±0.3 μm
increase in cell area as compared to the Sham control group [3]: 37%
increase in perimeter as compared to the Sham control group [3]: 18%

CCOC(=O)[C@H](CCc1ccccc1)N[C@@H](C)C(=O)N1CCC[C@H]1C(=O)O [enalapril]
plasma and/or tissue levels of angiotensin-(1-9) (angiotensin-(1-9)): increase
